Results from US6433008B1, “α-aryl-N-alkylnitrones and pharmaceutical compositions containing the same” (Centaur Pharmaceuticals, Inc., priority 1997, dated 2002).

Key:
[1] = tested on: MBP-induced EAE in Lewis rats; experiment: Prevention of MBP-induced experimental allergic encephalomyelitis (EAE); assay type: in vivo; settings: 100 mg/kg b.i.d. oral gavage, day 3 to day 16 post-inoculation
Experimental: Experimental allergic encephalomyelitis (EAE) induced by injection of guinea pig myelin basic protein (MBP) or MBP peptide fragments is reported to be a useful model for MS. See, for example, D. E. McFarlin et al., “Recurrent Experimental Allergic Encephalomyelitis in the Lewis Rat,” The Journal of Immnunology, 113(2): 712-715 (1974).
Female, Lewis rats of 8 weeks of age (180-250 g) were weighed and then given two intradermal injections (0.1 mL each) of 0.4 mg of M. tuberculin in 0.1 mL incomplete Freunds adjuvant and […] of myelin basic protein in 0.1 mL of saline into the base of the tail. Animals were weighed daily and given a clinical score beginning on Day 8, post inoculation, according to the following criteria:
2.5=Hind limb paralysis and front limb weakness
3.0=Hind and front limb paralysis
4.0=Moribund state or death
On day 3, post-inoculation animals were administered b.i.d either a test compound (100 mg/kg) or 1% methylcellulose vehicle by oral gavage up to and including day 16.

[2] = tested on: rats injected with Aβ(25-35) and ibotenate into the hippocampus; experiment: Reduction of cognitive defects due to Aβ-peptide/ibotenate (Morris water maze); assay type: in vivo, Male Sprague-Dawley rats; settings: 10 mg/kg oral gavage daily, Morris water maze 9-11 days after injection
Experimental: The procedures employed in this example are similar to those described in Dornan et al., NeuroReport 5, 165-168 (1993). Male Sprague-Dawley rats (200-300 g) were weighed and given 10 mg/kg of α-(2-ethoxyphenyl)-N-tert-butylnitrone or 1% methylcellulose by oral gavage. One hour later, the rats were stereotaxically injected into the CA1 region of their hippocampus with 8 nmol of Aβ(25-35) and 6 nmol of ibotenate per side (coordinates from bregma −3.6=AP, ±2.2=ML, −3.0=DV from the top of the dura). Controls were injected with PBS (pH 7.4). All injections were 1.5 μL in volume. The animals receiving PBS were orally dosed with 1% methylcellulose. Oral dosing continued daily until the end of the Morris water maze testing.
Nine to eleven days following injection, animals were tested in a Morris water maze task to measure spatial memory and learning. Animals were given three days of testing with four to six trials per day. The last trial on the fourth day was a probe trial where the platform was removed and time in quadrant and annulae crossings were determined. Following the behavioral testing, animals were perfused with 10% neutral formalin. The brain was post-fixed for 1 week in 10% formalin and then sliced for histological evaluation. Image analysis of cresyl violet staining was used to compare the neuronal loss (lesion volume) in the hippocampus between groups.

MRL/MpJ Fas^lpr mice = experiment: Reduction of cognitive deficits in autoimmune mice (T-maze task); assay type: in vivo; settings: 100 mg/kg oral gavage daily for 8 to 9 weeks, Fas^lpr mice tested at 4 months of age
Experimental: MRL/MpJfas^lpr (“mutant mice” or “Fas^lpr”) strains of mice have been described as useful models of Lupus due to their autoimmune lymphoproliferative pathology. In particular, the mutant mice show a cognitive deficit at approximately four months of age, which is not observed at two months of age. See, for example, Forster et al., 1988, Behav. Neural Biology, 49, 139-151.
In the experiment, male MRL/MpJ Fas^lPr and normal MRL/MpJ++ mice of 8 weeks of age were weighed and administered 100 mg/kg of the test compound (either α-(2-ethoxyphenyl)-N-tert-butylnitrone or α-(4-ethoxyphenyl)-N-cyclohexylnitrone) or 1% methylcellulose vehicle by oral gavage daily for 8 to 9 weeks. At 4 months of age, the mice were tested for avoidance, discrimination, session criteria and acquisition in a one day T-maze task with a maximum of 25 trials. Criteria was met with four of five trials correct with the last two correct trials being consecutive in avoidance and discrimination.

Compound	CNS inflammatory deficit in acute EAE animals (clinical score) [1]	further results
CCOc1ccc(C=[N+]([O-])C(C)(C)C)cc1 [Example 4, α-(4-Ethoxyphenyl)-N-tert-butylnitrone]	did not significantly reduce the CNS inflammatory deficit	
CCOc1cc(C=[N+]([O-])C(C)(C)C)ccc1OC [Example 3, α-(3-Ethoxy-4-methoxyphenyl)-N-tert-butylnitrone]	reduced the CNS inflammatory deficit	
CCOc1cc(C=[N+]([O-])C(C)(C)CC(C)(C)C)ccc1OC [Example 45, α-(3-Ethoxy-4-methoxyphenyl)-N-tert-octylnitrone]	reduced the CNS inflammatory deficit	
CCCC[N+]([O-])=Cc1ccc(OCC)cc1 [Example 10, α-(4-ethoxyphenyl)-N-n-butylnitrone]	did not significantly reduce the CNS inflammatory deficit	
[O-][N+](=Cc1ccc(OCc2ccccc2)cc1)C1CCCC1 [Example 42, α-(4-Benzyloxyphenyl)-N-cyclopentylnitrone]	reduced the CNS inflammatory deficit	
CCCCCCCCOc1ccc(C=[N+]([O-])C(C)(C)C)c(F)c1 [Example 29, α-(2-Fluoro-4-octyloxyphenyl)-N-tert-butylnitrone]	did not significantly reduce the CNS inflammatory deficit	
CC(C)(C)[N+]([O-])=Cc1ccc(OCc2ccccc2)cc1 [Example 41, α-(4-Benzyloxyphenyl)-N-tert-butylnitrone]	reduced the CNS inflammatory deficit	
CCOc1ccccc1C=[N+]([O-])C(C)(C)C [Example 7, α-(2-Ethoxyphenyl)-N-tert-butylnitrone]	did not significantly reduce the CNS inflammatory deficit	Aβ peptide/ibotenate-induced learning deficit [2]: reduced the Aβ peptide/ibotenate-induced learning deficit; acquisition in T-maze task (MRL/MpJ Fas^lpr mice): reduced acquisition values; avoidance in T-maze task (MRL/MpJ Fas^lpr mice): acquired avoidance skills earlier than untreated mutant mice
CCCCCCOc1ccc(C=[N+]([O-])C2CCCCC2)cc1OCC [Example 22, α-(3-Ethoxy-4-hexyloxyphenyl)-N-cyclohexylnitrone]	reduced the CNS inflammatory deficit	
CCOc1ccc(C=[N+]([O-])C2CCCCC2)cc1 [Example 11, α-(4-Ethoxyphenyl)-N-cyclohexylnitrone]	reduced the CNS inflammatory deficit	acquisition in T-maze task (MRL/MpJ Fas^lpr mice): reduced acquisition values; avoidance in T-maze task (MRL/MpJ Fas^lpr mice): acquired avoidance skills earlier than untreated mutant mice
CCOc1cc(C=[N+]([O-])C(C)C)ccc1OC [Example 17, α-(3-Ethoxy-4-methoxyphenyl)-N-isopropyinitrone]	reduced the CNS inflammatory deficit	
CCOc1ccc(C=[N+]([O-])C2CCCCC2)cc1OC [Example 15, α-(4-Ethoxy-3-methoxyphenyl)-N-cyclohexylnitrone]	did not significantly reduce the CNS inflammatory deficit	
COc1cc(C=[N+]([O-])C(C)(C)C)ccc1OCc1ccccc1 [Example 5, α-(4-Benzyloxy-3-methoxyphenyl)-N-tert-butylnitrone]	did not significantly reduce the CNS inflammatory deficit	
